Pest or weed control data for nine molecules are collected here from patent US20220125051A1, “PRE-HARVEST DESICCATION METHOD” (SYNGENTA CROP PROTECTION AG, priority 2019, published 2022).

SMILES strings stand for the structures. Read-outs that look alike come from different tables or passages of the source.

Common to all, as to assay: Post-emergence efficacy, Method A
Holding throughout (assay type): in vivo

Assay [1] has as its system Amaranthus palmeri (AMAPA). To be noted: Amaranthus palmeri, post-emergence, 312 h, evaluated after 13 days. In short, it runs like this: (§1)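 Plants grown 14 days in glasshouse (24/16 °C, 14 h light, 65% humidity) were sprayed with compound formulated in IF50. The spray was diluted in 0.25% or 1% Empicol ESC70 plus 1% ammonium sulphate. Damage was scored 13 days later on a 0-100 scale, where 100 is total damage.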

The test system of assay [2] is Chenopodium album (CHEAL). The conditions noted are these: Chenopodium album, post-emergence, 312 h, evaluated after 13 days. In short, it runs like this:
as §1

The subject of assay [3] is Digitaria sanguinalis (DIGSA). The conditions noted are these: Digitaria sanguinalis, post-emergence, 312 h, evaluated after 13 days. The procedure, abridged:
as §1

For assay [4], the system named is Echinochloa crus-galli (ECHCG). The conditions noted are these: Echinochloa crus-galli, post-emergence, 312 h, evaluated after 13 days. In short, it runs like this: as §1
The test system of another assay is Eleusine indica (ELEIN). The conditions noted are these: Eleusine indica, post-emergence, 312 h, evaluated after 13 days. In short, it runs like this: as §1
Assay [5] relates to Euphorbia heterophylla (EPHHL). The conditions noted are these: Euphorbia heterophylla, post-emergence, 312 h, evaluated after 13 days. The procedure, abridged: as §1
The test system of assay [6] is Ipomoea hederacea (IPOHE). To be noted: Ipomoea hederacea, post-emergence, 312 h, evaluated after 13 days. In short, it runs like this: as §1
A further assay concerns Lolium perenne (LOLPE). The conditions noted are these: Lolium perenne, post-emergence, 312 h, evaluated after 13 days. In short, it runs like this: as §1
A further assay has as its system Setaria faberi (SETFA). The conditions noted are these: Setaria faberi, post-emergence, 312 h, evaluated after 13 days. The procedure, abridged:
as §1

Setting [7] is: Application Rate 500 g/Ha, Method A, read-out: Control of weed species after post-emergence application, AMAPA (100=total damage to plant; 0=no damage to plant).
Where [8] appears, read: Application Rate 500 g/Ha, Method A, read-out: Control of weed species after post-emergence application, CHEAL (100=total damage to plant; 0=no damage to plant).
[9] abbreviates: Application Rate 500 g/Ha, Method A, read-out: Control of weed species after post-emergence application, DIGSA (100=total damage to plant; 0=no damage to plant).
Where [10] appears, read: Application Rate 500 g/Ha, Method A, read-out: Control of weed species after post-emergence application, ECHCG (100=total damage to plant; 0=no damage to plant).
Setting [11] is: Application Rate 500 g/Ha, Method A, read-out: Control of weed species after post-emergence application, ELEIN (100=total damage to plant; 0=no damage to plant).
Where [12] appears, read: Application Rate 500 g/Ha, Method A, read-out: Control of weed species after post-emergence application, EPHHL (100=total damage to plant; 0=no damage to plant).
The mark [13] stands for this setting: Application Rate 500 g/Ha, Method A, read-out: Control of weed species after post-emergence application, IPOHE (100=total damage to plant; 0=no damage to plant).
Where [14] appears, read: Application Rate 500 g/Ha, Method A, read-out: Control of weed species after post-emergence application, LOLPE (100=total damage to plant; 0=no damage to plant).
Where [15] appears, read: Application Rate 500 g/Ha, Method A, read-out: Control of weed species after post-emergence application, SETFA (100=total damage to plant; 0=no damage to plant).

For the molecule `Cc1cnc(-c2cc[n+](CCS(=O)(=O)[O-])nc2)c(C)c1` [Compound A152], the pest or weed control at 500 g/ha in assay [1] (Application rate 500 g/Ha, 100=total damage to plant, 0=no damage to plant, read-out: Control of weed species after post-emergence application, AMAPA) worked out at 20%; in [2] (Application rate 500 g/Ha, 100=total damage to plant, 0=no damage to plant, read-out: Control of weed species after post-emergence application, CHEAL), 10%; in assay [3] (Application rate 500 g/Ha, 100=total damage to plant, 0=no damage to plant, read-out: Control of weed species after post-emergence application, DIGSA), 30%; in [4] (Application rate 500 g/Ha, 100=total damage to plant, 0=no damage to plant, read-out: Control of weed species after post-emergence application, ECHCG) it was 20%; in the assay on Eleusine indica (ELEIN) (Application rate 500 g/Ha, 100=total damage to plant, 0=no damage to plant, read-out: Control of weed species after post-emergence application, ELEIN), 20%; in [5] (Application rate 500 g/Ha, 100=total damage to plant, 0=no damage to plant, read-out: Control of weed species after post-emergence application, EPHHL), 20%. Moreover, the pest or weed control at 500 g/ha came out at 0% in assay [6] (Application rate 500 g/Ha, 100=total damage to plant, 0=no damage to plant, read-out: Control of weed species after post-emergence application, IPOHE); 10% in the assay on Lolium perenne (LOLPE) (Application rate 500 g/Ha, 100=total damage to plant, 0=no damage to plant, read-out: Control of weed species after post-emergence application, LOLPE); 20% with Setaria faberi (SETFA) (Application rate 500 g/Ha, 100=total damage to plant, 0=no damage to plant, read-out: Control of weed species after post-emergence application, SETFA).

Turning to `Cc1c[n+](CCC(=O)O)ncc1-c1ncccn1` [Compound A153], the pest or weed control at 500 g/ha in assay [1] (setting [7]) was determined as 90%; in [2] (setting [8]) it was 60%; in assay [3] (setting [9]), 20%; in assay [4] (setting [10]), 40%; in the assay on Eleusine indica (ELEIN) (setting [11]) it was 20%; in [5] (setting [12]) it was 40%. In addition, the figures for the pest or weed control at 500 g/ha (in assay [6] (setting [13]); in the assay on Lolium perenne (LOLPE) (setting [14]); in the assay on Setaria faberi (SETFA) (setting [15])) were 20%, 0% and 20%, respectively.

As to `O=S(=O)([O-])CCC[n+]1ccc(-c2nccc(CO)n2)cn1` [Compound A154], the pest or weed control at 125 g/ha in [1] (Application Rate 125 g/Ha, Method A, read-out: Control of weed species after post-emergence application, AMAPA (100=total damage to plant; 0=no damage to plant)) was found to be 40%; in assay [2] (Application Rate 125 g/Ha, Method A, read-out: Control of weed species after post-emergence application, CHEAL (100=total damage to plant; 0=no damage to plant)), 50%; in assay [3] (Application Rate 125 g/Ha, Method A, read-out: Control of weed species after post-emergence application, DIGSA (100=total damage to plant; 0=no damage to plant)), 20%; in assay [4] (Application Rate 125 g/Ha, Method A, read-out: Control of weed species after post-emergence application, ECHCG (100=total damage to plant; 0=no damage to plant)), 20%; in the assay on Eleusine indica (ELEIN) (Application Rate 125 g/Ha, Method A, read-out: Control of weed species after post-emergence application, ELEIN (100=total damage to plant; 0=no damage to plant)), 10%; in [5] (Application Rate 125 g/Ha, Method A, read-out: Control of weed species after post-emergence application, EPHHL (100=total damage to plant; 0=no damage to plant)) it was 70%. Also, the pest or weed control at 125 g/ha in assay [6] (Application Rate 125 g/Ha, Method A, read-out: Control of weed species after post-emergence application, IPOHE (100=total damage to plant; 0=no damage to plant)) is 20%; in the assay with Lolium perenne (LOLPE) (Application Rate 125 g/Ha, Method A, read-out: Control of weed species after post-emergence application, LOLPE (100=total damage to plant; 0=no damage to plant)) it was 10%; in the assay on Setaria faberi (SETFA) (Application Rate 125 g/Ha, Method A, read-out: Control of weed species after post-emergence application, SETFA (100=total damage to plant; 0=no damage to plant)) it was 30%.

Turning to `Cc1ccc(-c2cc[n+](CCS(=O)(=O)[O-])nc2)nc1` [Compound A155], the pest or weed control at 500 g/ha in [1] (setting [7]) is 20%; in [2] (setting [8]), 10%; in assay [3] (setting [9]) it was 50%; in assay [4] (setting [10]), 40%; in the assay with Eleusine indica (ELEIN) (setting [11]) it was 30%; in assay [5] (setting [12]), 30%. The results for the pest or weed control at 500 g/ha (in assay [6] (setting [13]); with Lolium perenne (LOLPE) (setting [14]); in the assay on Setaria faberi (SETFA) (setting [15])) were 20%, 50% and 40%, respectively.

Take `Cc1cc(Cl)cnc1-c1cc[n+](CCC(=O)O)nc1` [Compound A156]: the pest or weed control at 500 g/ha in assay [1] (setting [7]) was 30%; in assay [2] (setting [8]) it was 50%; in assay [3] (setting [9]), 20%; in assay [4] (setting [10]) it was 10%; with Eleusine indica (ELEIN) (setting [11]), 20%; in assay [5] (setting [12]) it was 50%. In addition, the pest or weed control at 500 g/ha in [6] (setting [13]) amounted to 10%; in the assay on Lolium perenne (LOLPE) (setting [14]), 0%; in the assay with Setaria faberi (SETFA) (setting [15]), 20%.

Regarding `O=C(O)CC[n+]1ccc(-c2ccncc2F)cn1` [Compound A157], the pest or weed control at 500 g/ha was 100% in assay [1] (setting [7]); 100% in assay [2] (setting [8]); 70% in assay [3] (setting [9]); 80% in assay [4] (setting [10]); 90% with Eleusine indica (ELEIN) (setting [11]); 80% in assay [5] (setting [12]). Besides, the pest or weed control at 500 g/ha in assay [6] (setting [13]) turned out to be 60%; in the assay on Lolium perenne (LOLPE) (setting [14]) it was 30%; with Setaria faberi (SETFA) (setting [15]), 80%.

As for `Nc1nccc(-c2cc[n+](CCS(=O)(=O)[O-])nc2)n1` [Compound A158], the pest or weed control at 500 g/ha worked out at 100% in assay [1] (setting [7]); 80% in assay [2] (setting [8]); 30% in [3] (setting [9]); 20% in [4] (setting [10]); 50% in the assay on Eleusine indica (ELEIN) (setting [11]); 80% in assay [5] (setting [12]). Further, the figures for the pest or weed control at 500 g/ha (in assay [6] (setting [13]); in the assay on Lolium perenne (LOLPE) (setting [14]); in the assay on Setaria faberi (SETFA) (setting [15])) were 30%, 30% and 40%, respectively.

Turning to `O=S(=O)(O)CC[n+]1ccc(-c2ccncc2F)cn1` [Compound A159], the pest or weed control at 500 g/ha in assay [1] (setting [7]) stood at 100%; in assay [2] (setting [8]), 100%; in assay [3] (setting [9]), 30%; in assay [4] (setting [10]) it was 70%; with Eleusine indica (ELEIN) (setting [11]), 50%; in assay [5] (setting [12]), 80%. The results for the pest or weed control at 500 g/ha (in assay [6] (setting [13]); in the assay with Lolium perenne (LOLPE) (setting [14]); in the assay with Setaria faberi (SETFA) (setting [15])) were 50%, 40% and 60%, respectively.

As for `Nc1nccc(-c2cc[n+](CCC(=O)O)nc2)n1` [Compound A160], the pest or weed control at 500 g/ha in assay [1] (setting [7]) was determined as 100%; in [2] (setting [8]) it was 100%; in assay [3] (setting [9]), 70%; in [4] (setting [10]), 70%; with Eleusine indica (ELEIN) (setting [11]), 80%; in assay [5] (setting [12]), 90%. The pest or weed control at 500 g/ha in [6] (setting [13]) stood at 70%; in the assay with Lolium perenne (LOLPE) (setting [14]), 70%; in the assay on Setaria faberi (SETFA) (setting [15]), 90%.
